Read-outs that look alike come from different tables or passages of the source.

For data set [1] the following is noted: cited from earlier work.
The test system of data set [2] is hospitalized patients with COVID‐19. As to conditions: cited from earlier work.
The conditions of data set [3]: cited from earlier work. The source holds these as a separate data set.
The conditions of data set [4]: samples >20 h postdose, median (IQR).
Where [5] appears, read: imatinib N = 197 vs placebo N = 188.

For `Cc1ccc(NC(=O)c2ccc(CN3CCNCC3)cc2)cc1Nc1nccc(-c2cccnc2)n1` [N‐desmethyl imatinib], the “Metabolite AUC as % of the parent AUC” value in data set [1] (formed by CYP3A4) is recorded as ~ 10%. For the same compound, the “Activity of the metabolite” value in data set [1] (relative to imatinib) is listed as “active”.
On to `Cc1ccc(NC(=O)c2ccc(CN3CCN(C)CC3)cc2)cc1Nc1nccc(-c2cccnc2)n1` [imatinib], for which, in data set [1], the “Drug excreted by renal excretion” value was 13% and the “Drug excreted via the feces” value was 68%. Also, the Excreted unchanged in data set [1] (of the excreted drug) is listed as 25%. For the same compound, the Bioavailability result in data set [1] (oral) was “almost complete”. For the same compound, in data set [2] (CounterCOVID), the “Premature treatment stop due to gastrointestinal (GI) toxicity” value was “more imatinib treated patients stopped treatment prematurely”. Further, in data set [2] (setting [5]), the “Duration of invasive mechanical ventilation compared with placebo” value is given as “shorter” and the “Mortality compared with placebo” value is given as “significantly lower”. In data set [3], the “Protein bound in blood” value is greater than 95%. Further, in data set [4] (COVID-19 subset 1 (model building)), the “Observed total imatinib plasma concentration Ctrough” value is on record as 2156 (738–4179) µg/L. Moreover, in data set [4] (COVID-19 subset 2 (validation set)), the “Observed total imatinib plasma concentration Ctrough” value is recorded as 1791 (928.4–3204) µg/L.

(Values after PMC8646516 (CPT: Pharmacometrics & Systems Pharmacology, 2021).)
